Measurements published in patent publication US12091426B2, “Bifunctional degraders of hematopoietic progenitor kinase and therapeutic uses thereof” (Nurix Therapeutics, Inc., priority 2021, dated 2024).

Biological target: T1, HPK1 (Homo sapiens, UniProt Q92918)
T1 construct: A HiBiT tag was introduced by CRISPR on the N terminus of HPK1 in Jurkat cells; host or cells: Jurkat cells (ATCC TIB-152), monoclonal line with CRISPR knock-in of HiBiT at the endogenous HPK1 locus
Experiment: HPK1 Cellular HiBit Degradation Assay
Type: cell-based
Conditions: HiBiT HPK1 Jurkat cells, 24 hrs; for DC50: concentration at which 50% of HPK1 was remaining, read-out: DC50 Category; for Dmax: Jurkat, read-out: Dmax Category
How it was run: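 Degraders are dosed in an 11-point series (10 uM to 0.1 nM final) onto Jurkat cells carrying an N-terminal HiBiT tag on endogenous HPK1. After 24 hrs at 37° C, lysis-based HiBiT luminescence quantifies remaining HPK1 relative to vehicle, and curve fitting gives DC50 and Dmax.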

[1] = maximum degradation vs DMSO vehicle control

T1 sequence (Q92918 whole entry): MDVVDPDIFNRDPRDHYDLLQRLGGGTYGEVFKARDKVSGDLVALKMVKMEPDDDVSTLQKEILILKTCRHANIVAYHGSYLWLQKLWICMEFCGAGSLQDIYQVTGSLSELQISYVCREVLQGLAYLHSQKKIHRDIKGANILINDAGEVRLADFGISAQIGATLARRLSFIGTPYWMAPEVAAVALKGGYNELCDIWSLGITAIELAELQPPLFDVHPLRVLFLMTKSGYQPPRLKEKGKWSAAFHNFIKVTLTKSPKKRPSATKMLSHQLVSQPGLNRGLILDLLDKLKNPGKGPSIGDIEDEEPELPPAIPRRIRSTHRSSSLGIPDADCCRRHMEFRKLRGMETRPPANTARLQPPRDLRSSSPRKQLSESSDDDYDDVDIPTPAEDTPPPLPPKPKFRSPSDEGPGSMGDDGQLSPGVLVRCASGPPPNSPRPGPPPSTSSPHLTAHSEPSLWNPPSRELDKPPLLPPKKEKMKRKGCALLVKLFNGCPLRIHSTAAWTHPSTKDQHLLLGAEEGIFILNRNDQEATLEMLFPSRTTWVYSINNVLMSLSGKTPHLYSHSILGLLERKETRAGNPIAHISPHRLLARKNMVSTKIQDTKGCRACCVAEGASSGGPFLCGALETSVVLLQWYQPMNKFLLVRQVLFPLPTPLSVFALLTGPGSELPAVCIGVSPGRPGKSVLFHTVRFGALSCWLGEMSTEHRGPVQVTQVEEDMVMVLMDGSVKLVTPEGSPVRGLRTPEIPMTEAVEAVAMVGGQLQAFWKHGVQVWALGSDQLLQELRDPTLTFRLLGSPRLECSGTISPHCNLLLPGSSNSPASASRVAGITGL

Compound `CC(C)n1cnc2cc(-c3ccc4c(c3)N([C@H]3C[C@@H](N5CCCCC5)C3)C(=O)C43CCN(C(=O)C4CCN(C(=O)CC5CCN(c6ccc(C7CCC(=O)NC7=O)cn6)CC5)CC4)CC3)nc(Oc3ccccc3F)c21` (stereo partly drawn) [Example 167, 3-[6-(4-{2-[4-({6-[4-(2-fluorophenoxy)-3-(propan-2-yl)-3H-imidazo[4,5-c]pyridin-6-yl]-2-oxo-1-[(1S,3S)-3-(piperidin-1-yl)cyclobutyl]-1,2-dihydrospiro[indole-3,4′-piperidin]-1′-yl}carbonyl)piperidin-1-yl]-2-oxoethyl}piperidin-1-yl)pyridin-3-yl]piperidine-2,6-dione] has a DC50 of less than 100 nM and a Dmax [1] of 70 to 85%.

Compound `CC(C)n1cnc2cc(-c3ccc4c(c3)N([C@H]3C[C@@H](N5CCCCC5)C3)C(=O)C43CCN(C(=O)C4CCN(C(=O)[C@@H]5CCN(c6ccc(C7CCC(=O)NC7=O)cn6)C5)CC4)CC3)nc(Nc3ccccc3F)c21` (mixture of isomers) [Example 47, (3RS)-3-{6-[(3R)-3-{4-[(6-{4-[(2-fluorophenyl)amino]-3-(propan-2-yl)-3H-imidazo[4,5-c]pyridin-6-yl}-2-oxo-1-[(1S,3S)-3-(piperidin-1-yl)cyclobutyl]-1,2-dihydrospiro[indole-3,4′-piperidin]-1′-yl)carbonyl]piperidine-1-carbonyl}pyrrolidin-1-yl]pyridin-3-yl}piperidine-2,6-dione] has a DC50 of 100 to 500 nM and a Dmax [1] of 50 to 70%.

Work on `CC(C)n1cnc2cc(-c3ccc4c(c3)N([C@H]3C[C@@H](N5CCCCC5)C3)C(=O)C43CCN(C(=O)C4(C(F)F)CCN(C(=O)C5CCN(c6ccc(C7CCC(=O)NC7=O)cn6)CC5)CC4)CC3)nc(NC3CC3)c21` (mixture of isomers) [Example 276, (3RS)-3-(6-{4-[4-({6-[4-(cyclopropylamino)-3-(propan-2-yl)-3H-imidazo[4,5-c]pyridin-6-yl]-2-oxo-1-[(1S,3S)-3-(piperidin-1-yl)cyclobutyl]-1,2-dihydrospiro[indole-3,4′-piperidin]-1′-yl}carbonyl)-4-(difluoromethyl)piperidine-1-carbonyl]piperidin-1-yl}pyridin-3-yl)piperidine-2,6-dione] yielded a DC50 of less than 100 nM and a Dmax [1] greater than 85%.

With `CC(C)n1cnc2cc(-c3ccc4c(c3)N([C@H]3C[C@@H](N5CCCCC5)C3)C(=O)C43CCN(C(=O)C4CCN(C(=O)[C@H]5CC[C@H](Nc6cc(C7CCC(=O)NC7=O)ccn6)CC5)CC4)CC3)nc(Nc3ccccc3F)c21` (mixture of isomers) [Example 52, (3RS)-3-(2-{[(1R,4R)-4-{4-[(6-{4-[(2-fluorophenyl)amino]-3-(propan-2-yl)-3H-imidazo[4,5-c]pyridin-6-yl}-2-oxo-1-[(1S,3S)-3-(piperidin-1-yl)cyclobutyl]-1,2-dihydrospiro[indole-3,4′-piperidin]-1′-yl)carbonyl]piperidine-1-carbonyl}cyclohexyl]amino}pyridin-4-yl)piperidine-2,6-dione] the DC50 was 500 to 1000 nM and the Dmax [1] was 50 to 70%.

Work on `CC(C)n1cnc2cc(-c3ccc4c(c3)N([C@H]3C[C@@H](N5CCCCC5)C3)C(=O)C43CCN(C(=O)C4C5CN(C(=O)C6CCN(c7ccc(C8CCC(=O)NC8=O)cn7)CC6)CC54)CC3)nc(Nc3ccccc3F)c21` (mixture of isomers) [Example 39, (3RS)-3-[6-(4-{6-[(6-{4-[(2-fluorophenyl)amino]-3-(propan-2-yl)-3H-imidazo[4,5-c]pyridin-6-yl}-2-oxo-1-[(1S,3S)-3-(piperidin-1-yl)cyclobutyl]-1,2-dihydrospiro[indole-3,4′-piperidin]-1′-yl)carbonyl]-3-azabicyclo[3.1.0]hexane-3-carbonyl}piperidin-1-yl)pyridin-3-yl]piperidine-2,6-dione] yielded a DC50 of less than 100 nM and a Dmax [1] greater than 85%.

Compound `CC(C)n1cnc2cc(-c3ccc4c(c3)N([C@H]3C[C@@H](N5CCCCC5)C3)C(=O)C43CCN(C(=O)C4CCN(C(=O)C5CCN(c6ncc(C7CCC(=O)NC7=O)cn6)CC5)CC4)CC3)nc(Nc3ccncc3F)c21` (mixture of isomers) [Example 91, (3RS)-3-[2-(4-{4-[(6-{4-[(3-Fluoropyridin-4-yl)amino]-3-(propan-2-yl)-3H-imidazo[4,5-c]pyridin-6-yl}-2-oxo-1-[(1S,3S)-3-(piperidin-1-yl)cyclobutyl]-1,2-dihydrospiro[indole-3,4′-piperidin]-1′-yl)carbonyl]piperidine-1-carbonyl}piperidin-1-yl)pyrimidin-5-yl]piperidine-2,6-dione] has a DC50 of 100 to 500 nM and a Dmax [1] of 50 to 70%.

For `CC(C)n1cnc2cc(-c3ccc4c(c3)N([C@H]3C[C@@H](N5CCCCC5)C3)C(=O)C43CCN(C(=O)C4CCN(C(=O)[C@H]5CC[C@H](Nc6cncc(C7CCC(=O)NC7=O)c6)CC5)CC4)CC3)nc(Nc3ccccc3F)c21` (mixture of isomers) [Example 58, (3RS)-3-(5-{[(1R,4R)-4-{4-[(6-{4-[(2-fluorophenyl)amino]-3-(propan-2-yl)-3H-imidazo[4,5-c]pyridin-6-yl}-2-oxo-1-[(1S,3S)-3-(piperidin-1-yl)cyclobutyl]-1,2-dihydrospiro[indole-3,4′-piperidin]-1′-yl)carbonyl]piperidine-1-carbonyl}cyclohexyl]amino}pyridin-3-yl)piperidine-2,6-dione], the DC50 was 100 to 500 nM and the Dmax [1] was 50 to 70%.

With `CC(C)n1cnc2cc(-c3ccc4c(c3)N([C@H]3C[C@@H](N5CCCCC5)C3)C(=O)C43CCN(C(=O)C4CN(C(=O)C5CCN(c6ccc(C7CCC(=O)NC7=O)cn6)CC5)CC5(CCC5)C4)CC3)nc(NC3CC3)c21` (mixture of isomers) [Example 267, (3RS)-3-(6-{4-[8-({6-[4-(cyclopropylamino)-3-(propan-2-yl)-3H-imidazo[4,5-c]pyridin-6-yl]-2-oxo-1-[(1S,3S)-3-(piperidin-1-yl)cyclobutyl]-1,2-dihydrospiro[indole-3,4′-piperidin]-1′-yl}carbonyl)-6-azaspiro[3.5]nonane-6-carbonyl]piperidin-1-yl}pyridin-3-yl)piperidine-2,6-dione] the DC50 was less than 100 nM and the Dmax [1] was 50 to 70%.

Work on `CC(C)n1cnc2cc(-c3ccc4c(c3)N([C@H]3C[C@@H](N5CCCCC5)C3)C(=O)C43CCN(C(=O)C4(C)CCN(C(=O)[C@H]5CC[C@H](Nc6ccc(C7CCC(=O)NC7=O)cc6)CC5)CC4)CC3)nc(NC3CC3)c21` (mixture of isomers) [Example 191, (3RS)-3-(4-{[(1R,4R)-4-[4-({6-[4-(cyclopropylamino)-3-(propan-2-yl)-3H-imidazo[4,5-c]pyridin-6-yl]-2-oxo-1-[(1S,3S)-3-(piperidin-1-yl)cyclobutyl]-1,2-dihydrospiro[indole-3,4′-piperidin]-1′-yl}carbonyl)-4-methylpiperidine-1-carbonyl]cyclohexyl]amino}phenyl)piperidine-2,6-dione] yielded a DC50 of less than 100 nM and a Dmax [1] of 70 to 85%.

`CC(C)n1cnc2cc(-c3ccc4c(c3)N([C@H]3C[C@@H](N5CCCCC5)C3)C(=O)C43CCN(C(=O)[C@@H]4CCN(C(=O)C5CCN(c6ccc(C7CCC(=O)NC7=O)cn6)CC5)[C@H](C)C4)CC3)nc(NC3CC3)c21` (mixture of isomers) [Example 245, (3RS)-3-(6-{4-[(2R,4R)-4-({6-[4-(cyclopropylamino)-3-(propan-2-yl)-3H-imidazo[4,5-c]pyridin-6-yl]-2-oxo-1-[(1S,3S)-3-(piperidin-1-yl)cyclobutyl]-1,2-dihydrospiro[indole-3,4′-piperidin]-1′-yl}carbonyl)-2-methylpiperidine-1-carbonyl]piperidin-1-yl}pyridin-3-yl)piperidine-2,6-dione] was tested, and the DC50 was less than 100 nM and the Dmax [1] was 70 to 85%.

For `CC(C)n1cnc2cc(-c3ccc4c(c3)N([C@H]3C[C@@H](N5CCCCC5)C3)C(=O)C43CCN(C(=O)C4(C)CCN(C(=O)C5CCN(c6ccc(N7CCC(=O)NC7=O)cn6)CC5)CC4)CC3)nc(Nc3ccncc3F)c21` [Example 117, 1-[6-(4-{4-[(6-{4-[(3-fluoropyridin-4-yl)amino]-3-(propan-2-yl)-3H-imidazo[4,5-c]pyridin-6-yl}-2-oxo-1-[(1S,3S)-3-(piperidin-1-yl)cyclobutyl]-1,2-dihydrospiro[indole-3,4′-piperidin]-1′-yl)carbonyl]-4-methylpiperidine-1-carbonyl}piperidin-1-yl)pyridin-3-yl]-1,3-diazinane-2,4-dione], the DC50 was less than 100 nM and the Dmax [1] was greater than 85%.

`CC(C)n1cnc2cc(-c3ccc4c(c3)N([C@H]3C[C@@H](N5CCCCC5)C3)C(=O)C43CCN(C(=O)C4(C)CCN(C(=O)C5CCN(c6ccc(C7CCC(=O)NC7=O)cn6)CC5)CC4)CC3)nc(OC3CC3)c21` (stereo partly drawn) [Example 178, 3-(6-{4-[4-({6-[4-cyclopropoxy-3-(propan-2-yl)-3H-imidazo[4,5-c]pyridin-6-yl]-2-oxo-1-[(1S,3S)-3-(piperidin-1-yl)cyclobutyl]-1,2-dihydrospiro[indole-3,4′-piperidin]-1′-yl}carbonyl)-4-methylpiperidine-1-carbonyl]piperidin-1-yl}pyridin-3-yl)piperidine-2,6-dione] gave a DC50 of less than 100 nM and a Dmax [1] greater than 85%.

With `CC(C)n1cnc2cc(-c3ccc4c(c3)N(C3CC(N5CCCCC5)C3)C(=O)C43CCN(C(=O)C4(C)CCN(C(=O)C5(C)CCN(c6ccc(C7CCC(=O)NC7=O)cn6)CC5)CC4)CC3)nc(NC3CC3)c21` (racemic) [Example 151, (3RS)-3-(6-{4-[4-({6-[4-(cyclopropylamino)-3-isopropylimidazo[4,5-c]pyridin-6-yl]-2-oxo-1-[(1S,3S)-3-(piperidin-1-yl)cyclobutyl]spiro[indole-3,4′-piperidin]-1′-yl}carbonyl)-4-methylpiperidine-1-carbonyl]-4-methylpiperidin-1-yl}pyridin-3-yl)piperidine-2,6-dione] the DC50 was less than 100 nM and the “Dmax Category” value [1] was “B (B: >70%-<85%)”.
